Results published in patent publication US20130039952A1, “CALCIPOTRIOL MONOHYDRATE NANOCRYSTALS” (LEO PHARMA A/S, priority 2009, published 2013).

Assays:
[1] = DSC analysis of the amount of amorphous calcipotriol; type: physicochemical; settings: two batches, DSC at 100, 300 and 500° C./min under N2
Description: The amount of amorphous calcipotriol generated in this method was determined on two batches of calcipotriol nanocrystals prepared by the method using DSC analysis at a heating rate of 100° C., 300° C. and 500° C./min. under a N2 atmosphere. The instrument used for the analysis was a Perkin Elmer DSC 8500.

[2] = Particle size by dynamic light scattering; type: physicochemical; settings: Zetasizer Nano ZS90, after high pressure homogenization
Description: The term “particle size distribution” is intended to mean the span between the smallest and largest calcipotriol monohydrate crystal as determined by dynamic light scattering (also known as photon correlation spectroscopy) using a Zetasizer Nano ZS or ZS90 according to the manufacturer's instructions (available from Malvern Instruments, UK). Dynamic light scattering determines the size of solid particles suspended in a liquid by illuminating the particles with a laser and analysing the intensity fluctuations in the scattered light resulting from the Brownian motions of the particles in the liquid. Intensity fluctuations are correlated to particle size in that larger particles move more slowly than smaller particles, i.e. the intensity fluctuation is slower.

IL-1α = assay: Release of IL-1α with glycerol in a calcipotriol ointment; settings: 5%, 10% and 15% by weight of glycerol in a calcipotriol ointment
[3] = system: gene encoding cathelicidin; assay: Cathelicidin gene activation in reconstructed human epidermis, ointments; type: cell-based; settings: 5% vs 10% or 15% by weight of glycerol in the composition
Description: In psoriasis, the level of cathelicidin is increased in lesional skin of psoriasis patients. […] This finding has been utilized to develop an assay in which the uptake and biological activity of calcipotriol in human keratinocytes from the tested compositions has been determined by measuring the level of induction of the gene encoding cathelicidin.
Compositions A, C and D prepared as described in Example 2 above were applied topically in triplicate on reconstructed human epidermis consisting of normal human keratinocytes cultured for 12 days on 0.5 cm^2 polycarbonate filters (available from SkinEthic® Laboratories, Nice, France) in an amount of 10 μl. The tissue was treated for two days followed by separation of the epidermis from the polycarbonate filter and snap-frozen in liquid nitrogen. RNA was extracted from the cells and cDNA synthesized by conventional procedures. qPCR was then performed using the following assays from Applied Biosystems: CAMP Hs0018038_ml and GAPDH Hs99999905_ml. The expression levels of cathelicidin were normalized to GAPDH and a relative quantification was made by comparison with Daivonex® ointment.

[4] = M. Hannuksela et al., Contact Dermatitis 1, 1975; cited from earlier work

In the case of C=C1/C(=C\C=C2/CCC[C@]3(C)[C@@H]([C@H](C)/C=C/[C@@H](O)C4CC4)CC[C@@H]23)C[C@@H](O)C[C@@H]1O [calcipotriol monohydrate nanocrystals, Calcipotriol monohydrate], the “amount of amorphous calcipotriol” value [1] is reported as “only insignificant amounts of amorphous calcipotriol”, the mean particle size [2] is reported as 350-400 nm and the particle size distribution [2] is reported as 200-600 nm.
In the case of OCC(O)CO [glycerol], the “release of IL-1α” value (IL-1α) is reported as “reduce the release of IL-1α in a dose-dependent manner” and the “expression of cathelicidin / biological activity of calcipotriol” value [3] is reported as “potentiating the biological activity of calcipotriol”.
In the case of CC(O)CO (stereo not drawn) [propylene glycol], the “number of irritant reactions” value [4] is listed as 12.5%.
